Assay results from PMC12116657, “A “proto” type galectin expressed in striped bass (Morone saxatilis) tissues is released to epidermal mucus and binds to bacterial and mucus glycans” (Frontiers in Cellular and Infection Microbiology, 2025).

Assays:
Msgal1-L1 = assay: Solid-phase binding-inhibition assay: rMsgal1-L1-HRP binding to asialofetuin (ASF) inhibited by carbohydrates; set-up: species or system Morone saxatilis; conditions: for Relative inhibitory activity, Morone saxatilis: I50 normalized to Galβ1,4Glc (lactose) = 1.0, rMsgal1-L1-HRP binding to ASF, pH 8.0, 23°C, 10 mM ME
Description: Binding of the rMsgal1-L1–HRP to asialofetuin (ASF) and its inhibition by carbohydrates were assessed and optimized as reported elsewhere ([Ahmed et al., 1996], [2002]). […] Thus, the inhibition of galectin binding to immobilized ASF by mono- and oligosaccharides is a standard system to analyze the fine specificity of novel galectins. Briefly, ASF (0.5 μg/100 μl/well) in 0.1 M Na2CO3/0.02% NaN3 (pH 9.6) was adsorbed onto the plastic wells (37°C, 3 h) and the bound glycoprotein was fixed with 2% formaldehyde (37°C, 30 min). The plates were washed three times with PBS (azide-free)/0.05% Tween 20, and incubated with the Msgal1-L1–HRP conjugate (10 ng/100 μl/well for binding assays) or with a pre-incubated mixture of equal volume of conjugate and varying concentrations of test ligands (for binding-inhibition assays). After incubation (4°C, 1 h) the plates were washed with ice-cold azide-free PBS-Tween 20 buffer and the bound peroxidase activity was assayed with 2,2’-azino-bis(3-ethylbenzothiazoline-6-sulfonic acid) (ABTS) as previously described ([Ahmed et al., 1996]).
The carbohydrate-binding specificity of Msgal1-L1 was determined by analyzing the binding of the rMsgal1-L1–HRP conjugate to ASF in the presence of several saccharides in a solid-phase assay under the optimal conditions of pH and temperature established above (pH 8.0; 23°C) and under a reducing environment (10 mM ME) ([Ahmed et al., 1996], [2002]). For each test saccharide, a complete inhibition curve was obtained, and the molar concentrations that inhibited the binding of the lectin conjugate to ASF by 50% (I 50) were calculated and normalized with respect to Galβ1,4Glc (lactose), which was included in each plate as a standard ( Table 2 ). The binding-inhibition profile for Msgal1-L1 was generally similar to those for proto type galectins from zebrafish (D. rerio), toad (B. arenarum), and domestic cow (Bos taurus). […] The presence of a fucose unit linked in α1,2 to the non-reducing Gal moiety decreased the inhibitory effectiveness in about one-third as compared to lactose, most likely by steric hindrance of the protein–Gal interaction. […] A hydrophobic phenyl group linked to the reducing end of Galβ1,3GlcNAc strengthened the Msgal1-L1 interaction with the ligand 6.5-fold.

[1] = tested on: proto type galectin from toad (Bufo arenarum); conditions: relative to Galβ1,4Glc = 1.0; comparison values, reference not given; cited from earlier work
[2] = tested on: proto type galectin from zebrafish (Danio rerio); conditions: relative to Galβ1,4Glc = 1.0; comparison values, reference not given; cited from earlier work
[3] = tested on: proto type galectin from domestic cow (Bos taurus); conditions: relative to Galβ1,4Glc = 1.0; comparison values, reference not given; cited from earlier work
[4] = tested on: striped bass epidermal mucus; assay: Dot blot binding to untreated and glycosidase-treated epidermal mucus fractions; set-up: species or system Morone saxatilis; conditions: pre-incubation of rMsgal1-L1 with lactose 200 mM; inhibition not complete
Description: The crude epidermal mucus was cleared of particulate matter and fractionated by centrifugation at 17,000 rpm for 45 min at 4°C, resulting in three distinct layers: a clear upper layer of lower viscosity, an opaque more viscous layer immediately below that likely contain the highest concentration of mucins, and a loose pellet of solid cellular debris. Fractions obtained from multiple centrifugations were separated and corresponding layers were pooled as “clear upper layer pool” and “viscous intermediate layer pool.”
Pooled mucus layers were treated with N-glycosidase F [peptide-N ^4-(acetyl-β-glucosaminyl) asparagine amidase], O-glycosidase (O-glycopeptide endo-D-galactosyl-N-acetyl-α-galactosamino hydrolase, Roche), endoglycosidase H, or all three enzymes combined. […]
Aliquots (100 μL/well) of untreated or glycosidase-treated epidermal mucus pooled layers were dot-blotted onto PVDF membranes using a Bio-Dot Microfiltration Apparatus (Bio-Rad) under vacuum in replicate wells. […] For detection of endogenous ligands for Msgal1-L1, the membranes were blocked in 5% BSA/PBS, probing with rMsgal1-L1–HRP with or without lactose (200 mM), and detected with Stable-DAB (Invitrogen).

In the case of `CC(=O)N[C@H]1[C@H](O[C@H]2[C@H](O)[C@@H](CO)OC(O)[C@@H]2O)O[C@H](CO)[C@H](O)[C@@H]1O` (stereo partly shown) [GalNacβ1,3Glc], the “Relative inhibitory activity, Morone saxatilis” value (Msgal1-L1) is given as 2.8 and the “Relative inhibitory activity, Bufo arenarum” value [1] is given as 4.45.
For `CO[C@H]1O[C@H](CO)[C@H](O)[C@H](O)[C@H]1O` [Galα-OMe], the “Relative inhibitory activity, Morone saxatilis” value (Msgal1-L1) is given as 0.027, the “Relative inhibitory activity, Danio rerio” value [2] is given as 0.006 and the “Relative inhibitory activity, Bufo arenarum” value [1] is given as 0.03. The “Relative inhibitory activity, Bos taurus” value [3] was 0.01.
In the case of `OC[C@H]1O[C@@H](O[C@@H]2[C@@H](CO)O[C@](O)(CO)[C@H]2O)[C@H](O)[C@@H](O)[C@H]1O` [Galβ1,4Fru f], the “Relative inhibitory activity, Morone saxatilis” value (Msgal1-L1) is given as 1.9, the “Relative inhibitory activity, Danio rerio” value [2] is given as 1.0 and the “Relative inhibitory activity, Bufo arenarum” value [1] is given as 1.0.
In the case of `CO[C@H]1[C@H](O[C@H]2[C@H](O)[C@@H](O)C(O)O[C@@H]2CO)O[C@H](CO)[C@H](O)[C@@H]1O` (stereo partly shown) [MeO-2Galβ1,4Glc], the “Relative inhibitory activity, Morone saxatilis” value (Msgal1-L1) is listed as 3.33, the “Relative inhibitory activity, Danio rerio” value [2] is listed as 2.9 and the “Relative inhibitory activity, Bufo arenarum” value [1] is listed as 2.5. The “Relative inhibitory activity, Bos taurus” value [3] was 4.08.
With `CC(=O)N[C@H]1C(O)O[C@H](CO)[C@H](O)[C@@H]1OC1O[C@H](CO)[C@H](O)[C@H](O)[C@H]1O` (stereo partly shown) [Gal1,3GalNAc] the “Inhibitory effect (in words)” value (Msgal1-L1; Msgal1-L1 binding inhibition) was “negligible”.
In the case of `OC[C@H]1O[C@H](OCC2O[C@@H](O)[C@H](O)[C@@H](O)[C@@H]2O)[C@H](O)[C@@H](O)[C@H]1O` (stereo partly shown) [Galα1,6Glc], the “Relative inhibitory activity, Morone saxatilis” value (Msgal1-L1) is listed as 0.019, the “Relative inhibitory activity, Danio rerio” value [2] is listed as 0.004 and the “Relative inhibitory activity, Bufo arenarum” value [1] is listed as 0.0075. For the same compound, the “Relative inhibitory activity, Bos taurus” value [3] was 0.0053.
For `OC[C@H]1O[C@@H](O[C@H]2[C@H](O)[C@H](O)C(O)O[C@@H]2CO)[C@H](O)[C@@H](O)[C@H]1O` (stereo partly shown) [Galβ1,4Man], the “Relative inhibitory activity, Morone saxatilis” value (Msgal1-L1) is given as 1.74, the “Relative inhibitory activity, Danio rerio” value [2] is given as 1.5 and the “Relative inhibitory activity, Bufo arenarum” value [1] is given as 2.5. The “Relative inhibitory activity, Bos taurus” value [3] was 2.34.
In the case of `O=C[C@H](O)[C@@H](O)[C@@H](O)[C@H](O)CO` [Gal, D-galactose], the “Relative inhibitory activity, Morone saxatilis” value (Msgal1-L1) is listed as 0.007, the “Relative inhibitory activity, Danio rerio” value [2] is listed as 0.004 and the “Relative inhibitory activity, Bufo arenarum” value [1] is listed as 0.005. For the same compound, the “Relative inhibitory activity, Bos taurus” value [3] was 0.0079.
In the case of `CO[C@@H]1O[C@H](CO)[C@@H](O[C@@H]2O[C@H](CO)[C@H](O)[C@H](O)[C@H]2O)[C@H](O)[C@H]1O` [Galβ1,4Glcβ(1-0)Me], the “Relative inhibitory activity, Morone saxatilis” value (Msgal1-L1) is listed as 1.74, the “Relative inhibitory activity, Danio rerio” value [2] is listed as 2.9 and the “Relative inhibitory activity, Bufo arenarum” value [1] is listed as 2.14. For the same compound, the “Relative inhibitory activity, Bos taurus” value [3] was 1.33.
For `OC[C@H]1O[C@@H](O[C@H]2[C@@H](O)COC(O)[C@@H]2O)[C@H](O)[C@@H](O)[C@H]1O` (stereo partly shown) [Galβ1,3Ara], the “Relative inhibitory activity, Morone saxatilis” value (Msgal1-L1) is given as 4.10, the “Relative inhibitory activity, Danio rerio” value [2] is given as 2.1 and the “Relative inhibitory activity, Bufo arenarum” value [1] is given as 1.28. The “Relative inhibitory activity, Bos taurus” value [3] was 2.56.
For `OC[C@H]1O[C@@H](S[C@@H]2O[C@H](CO)[C@H](O)[C@H](O)[C@H]2O)[C@H](O)[C@@H](O)[C@H]1O` [Galβ1S1βGal, Thiodigalactoside], the “Relative inhibitory activity, Morone saxatilis” value (Msgal1-L1) is listed as 10.0, the “Relative inhibitory activity, Morone saxatilis” value (Msgal1-L1; listed as Thiodigalactoside) is listed as “approximately 10” and the “Relative inhibitory activity, Danio rerio” value [2] is listed as 12.2. For the same compound, the “Relative inhibitory activity, Bufo arenarum” value [1] was 3.9 and the “Relative inhibitory activity, Bos taurus” value [3] was 9.0.
In the case of Galβ1,6GlcNAc, the “Relative inhibitory activity, Morone saxatilis” value (Msgal1-L1) is given as 0.225, the “Relative inhibitory activity, Danio rerio” value [2] is given as 0.03 and the “Relative inhibitory activity, Bufo arenarum” value [1] is given as 0.83. The “Relative inhibitory activity, Bos taurus” value [3] was 0.12.
In the case of `Nc1ccc(O[C@@H]2O[C@H](CO)[C@@H](O[C@@H]3O[C@H](CO)[C@H](O)[C@H](O)[C@H]3O)[C@H](O)[C@H]2O)cc1` [Galβ1,4Glcβ-OPhNH2 (p)], the “Relative inhibitory activity, Morone saxatilis” value (Msgal1-L1) is listed as 2, the “Relative inhibitory activity, Danio rerio” value [2] is listed as 1.4 and the “Relative inhibitory activity, Bufo arenarum” value [1] is listed as 1.71. For the same compound, the “Relative inhibitory activity, Bos taurus” value [3] was 1.48.
For `OC[C@H]1O[C@@H](O[C@H]2[C@H](O)[C@@H](O)[C@H](O)O[C@@H]2CO)[C@H](O)[C@@H](O)[C@H]1O` [Galβ1,4Glc, lactose], the “Relative inhibitory activity, Morone saxatilis” value (Msgal1-L1) is given as 1.0, the “Inhibition of Msgal1-L1 binding to mucus layers” value [4] is given as “substantially reduced” and the “Relative inhibitory activity, Danio rerio” value [2] is given as 1.0. The “Relative inhibitory activity, Bufo arenarum” value [1] was 1.0 and the “Relative inhibitory activity, Bos taurus” value [3] was 1.0.
In the case of `CO[C@@H]1O[C@H](CO)[C@H](O)[C@H](O)[C@H]1O` [Galβ-OMe], the “Relative inhibitory activity, Morone saxatilis” value (Msgal1-L1) is given as 0.009, the “Relative inhibitory activity, Danio rerio” value [2] is given as 0.004 and the “Relative inhibitory activity, Bufo arenarum” value [1] is given as 0.006. The “Relative inhibitory activity, Bos taurus” value [3] was 0.0044.
In the case of `CC(=O)N[C@H]1C(O)O[C@H](CO)[C@@H](O[C@@H]2O[C@H](CO)[C@H](O)[C@H](O)[C@H]2O)[C@@H]1O` (stereo partly shown) [Galβ1,4GlcNac, N-acetyllactosamine], the “Relative inhibitory activity, Morone saxatilis” value (Msgal1-L1) is given as 3.07, the “Relative inhibitory activity, Morone saxatilis” value (Msgal1-L1; listed as Galβ1,4GlcNAc) is given as “approximately 3” and the “Relative inhibitory activity, Danio rerio” value [2] is given as 7.9. For the same compound, the “Relative inhibitory activity, Bufo arenarum” value [1] was 3.75 and the “Relative inhibitory activity, Bos taurus” value [3] was 5.54.
In the case of Fucα1,2Galβ1,4Glc, the “Relative inhibitory activity, Morone saxatilis” value (Msgal1-L1) is given as 0.33, the “Relative inhibitory activity, Danio rerio” value [2] is given as 0.35 and the “Relative inhibitory activity, Bufo arenarum” value [1] is given as 0.17. The “Relative inhibitory activity, Bos taurus” value [3] was 0.36.
In the case of `CC(=O)N[C@H]1[C@H](Oc2ccc([N+](=O)[O-])cc2)O[C@H](CO)[C@@H](O)[C@@H]1O[C@@H]1O[C@H](CO)[C@H](O)[C@H](O)[C@H]1O` [Galβ1-3GlcNacβ-OPhNO2 (p)], the “Relative inhibitory activity, Morone saxatilis” value (Msgal1-L1) is listed as 6.5, the “Relative inhibitory activity, Danio rerio” value [2] is listed as 2.3 and the “Relative inhibitory activity, Bufo arenarum” value [1] is listed as 1.78. For the same compound, the “Relative inhibitory activity, Bos taurus” value [3] was 4.5.
For `CC(=O)N[C@H]1[C@@H](O[C@H]2[C@@H](O)[C@@H](CO)O[C@@H](O)[C@@H]2O[C@@H]2O[C@@H](C)[C@@H](O)[C@@H](O)[C@@H]2O)O[C@H](CO)[C@H](O)[C@@H]1O` [A-trisaccharide], the “Fold less effective than lactose as inhibitor” value (Msgal1-L1; Msgal1-L1 binding to ASF) was “threefold less effective”.
